The target of one experiment is T1, SIRT1(183-664) (Homo sapiens, UniProt Q96EB6).
T1 construct: the truncated version used for biophysical studies SIRT1(183-664); made in house
T1 sequence (Q96EB6 183-664): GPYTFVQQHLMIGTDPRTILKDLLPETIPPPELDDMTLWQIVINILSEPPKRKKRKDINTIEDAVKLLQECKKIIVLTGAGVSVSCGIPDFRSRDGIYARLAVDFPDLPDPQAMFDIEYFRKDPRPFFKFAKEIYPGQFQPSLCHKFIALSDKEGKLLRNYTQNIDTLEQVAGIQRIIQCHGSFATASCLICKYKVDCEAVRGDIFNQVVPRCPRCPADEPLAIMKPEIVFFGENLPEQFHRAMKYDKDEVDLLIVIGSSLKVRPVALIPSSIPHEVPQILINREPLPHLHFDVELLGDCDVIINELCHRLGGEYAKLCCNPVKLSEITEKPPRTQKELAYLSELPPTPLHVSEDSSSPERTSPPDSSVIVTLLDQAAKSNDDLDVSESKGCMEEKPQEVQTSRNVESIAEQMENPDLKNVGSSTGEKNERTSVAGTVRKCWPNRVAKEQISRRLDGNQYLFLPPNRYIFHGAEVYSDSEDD
The experiment can be described thus: ITC binding of STACs to SIRT1(183-664). The conditions noted are these: dissociation constant of SRT:SIRT1 complex, read-out: Kx (μM), ITC. On the procedure: All peptides were prepared by BioPeptide (San Diego, Calif.) and shown to be at least 95% pure by analytical HPLC analysis. Bovine glutamate dehydrogenase (GDH), α-ketoglutarate, NADH and NAD^+ were from Sigma Chemical Company. Full-length, human SIRT1 and the truncated version used for biophysical studies SIRT1(183-664) were prepared as described previously, and shown to have equivalent kinetic properties (Milne et al. (2007) Nature 450, 712-716). The nicotinamidase PNC1 was prepared as described by Denu and colleagues (Smith et al. (2009) Anal Biochem 394, 101-109). ITC experiments were performed using either a VP-ITC system or iTC200 system (MicroCal) at 26° C. in a buffer composed of 137 mM NaCl, 2.7 mM KCl, 1 mM MgCl2, 2 mM TCEP, 5% (v/v) glycerol and 50 mM HEPES-NaOH, pH 7.3. SIRT1(183-664) was purified and dialyzed against the buffer, centrifuged, and degassed before the experiment. The peptide and compounds were dissolved in the final dialysis buffer and their pH values were adjusted to match that of the protein solution. […] To characterize this interaction using the iTC200 system, 1 mM TAMRA-peptide was injected in 20 aliquots of 2 μL, (except the first injection, which was 0.5 μL) into a 0.202 mL sample cell containing 100 μM STAC. For STACs with poor solubility, the concentrations were adjusted accordingly. […] To characterize the interaction of a STAC with SIRT1(183-664) on the VP-ITC system, 100 μM enzyme was injected in 35 aliquots of 8 μL, (except the first injection, which was 2 μL) into a 1.47 mL sample cell containing 10 μM STAC. […] In all cases, data was corrected for the heat of dilution and fitted using a nonlinear least-squares routine using a single-site binding model with Origin for ITC v7.0383 (Microcal) with the stoichiometry (n), the enthalpy of the reaction (ΔH) and the association constant (Ka) calculated.

A further experiment concerns the target TAMRA-peptide. Kind of experiment: ITC binding of STACs to TAMRA-peptide. The conditions noted are these: 26° C.; for Kd: pH 7.3, read-out: Kd for the binding of activator to TAMRA-peptide. On the procedure:
ITC experiments were performed using either a VP-ITC system or iTC200 system (MicroCal) at 26° C. in a buffer composed of 137 mM NaCl, 2.7 mM KCl, 1 mM MgCl2, 2 mM TCEP, 5% (v/v) glycerol and 50 mM HEPES-NaOH, pH 7.3. SIRT1(183-664) was purified and dialyzed against the buffer, centrifuged, and degassed before the experiment. The peptide and compounds were dissolved in the final dialysis buffer and their pH values were adjusted to match that of the protein solution. […] To characterize this interaction using the iTC200 system, 1 mM TAMRA-peptide was injected in 20 aliquots of 2 μL, (except the first injection, which was 0.5 μL) into a 0.202 mL sample cell containing 100 μM STAC. For STACs with poor solubility, the concentrations were adjusted accordingly. […] In all cases, data was corrected for the heat of dilution and fitted using a nonlinear least-squares routine using a single-site binding model with Origin for ITC v7.0383 (Microcal) with the stoichiometry (n), the enthalpy of the reaction (ΔH) and the association constant (Ka) calculated.

Entries after “also recorded” stand apart in the source; their conditions may differ. Structures can show the parent of a compound that is named as a salt.

Regarding `CN(C)CCCNc1cc(-c2nc3c(NC(=O)c4ccc(CN5CCNCC5)cc4)cccc3[nH]2)ccn1` [Compound 14, N-(2-(2-(3-(dimethylamino)propylamino)pyridin-4-yl)-1H-benzo[d]imidazol-4-yl)-4-(piperazin-1-ylmethyl)benzamide trihydrochloride], at SIRT1(183-664), the Kd was 0.43 µM. Turning to `CCCCc1nc(NC2CCNCC2)cc(C(=O)Nc2ccccc2-c2nc3cc(COC4CCNCC4)cnc3s2)n1` [Compound 10, 2-butyl-6-(piperidin-4-ylamino)-N-(2-(6-((piperidin-4-yloxy)methyl)thiazolo[5,4-b]pyridin-2-yl)phenyl)pyrimidine-4-carboxamide], at TAMRA-peptide, the Kd is 2.5 µM. `COc1cc(C(=O)Nc2ccccc2-c2cn3c(CN4CCNCC4)csc3n2)cc(OC)c1OC` [SRT1460]: the Kd on TAMRA-peptide is 140 µM.

In the case of `CN(C)Cc1cnc2sc(-c3ccccc3NC(=O)c3cnc4ccccc4n3)nc2c1` [Compound 2, N-(2-(6-((dimethylamino)methyl)thiazolo[5,4-b]pyridin-2-yl)phenyl)quinoxaline-2-carboxamide], the Kd at SIRT1(183-664) was determined as 0.32 µM. With `Cc1nc(-c2cccnc2)sc1C(=O)Nc1ccccc1-c1cn2c(CN3CC4CC3CN4)csc2n1` (stereo not shown) [Compound 4, N-(2-(3-(2,5-diazabicyclo[2.2.1]heptan-2-ylmethyl)imidazo[2,1-b]thiazol-6-yl)phenyl)-4-methyl-2-(pyridin-3-yl)thiazole-5-carboxamide], the “Kd for the binding of activator to TAMRA-peptide” value on TAMRA-peptide (pH 7.3) is recorded as “no detectable binding; also recorded: lack of binding”. For the same molecule, the values for the Kd at TAMRA-peptide and on SIRT1(183-664) were more than 100 µM and 3 µM, respectively.

The record behind these values is patent US20130102009A1, “SIRTUIN ACTIVATORS AND ACTIVATION ASSAYS” (priority 2010, published 2013).
